The source of these data is patent US20230303504A1, “CRYSTALLINE SALTS OF TIZOXANIDE AND 2-HYDROXY-N-(5-CHLORO-1,3-THIAZOL-2-YL)BENZAMIDE (RM-4848) WITH ETHANOLAMINE, MORPHOLINE, PROPANOLAMINE, PIPERAZINE AND N-METHYLPIPERAZINE” (priority 2020, published 2023).

Structures can show the parent of a compound that is named as a salt.

The nature of series [1]: physchem. It counts as physicochemical. From the text: The appropriate amine is heated with an equimolar amount of either tizoxanide or RM4848 in methanol until a clear solution is obtained. Any small amounts of undissolved solid are removed by filtration. On cooling, the desired salt may crystallize immediately; addition of an equal volume of a solvent, such as diethyl ether (for the tizoxanide salts) or concentration to a small volume, then addition of excess ether (for salts of RM4848), may be used to obtain solid products. In general the salts of RM4848 are more soluble under the above conditions. All the salts are more soluble in water than the parent thiazolides.
The resulting slurry was filtered without issues; the filtration went easy on a glass sintered funnel. The cake was washed with water (3×2 Veq) and methanol (3×2 Veq). Combining the neutralization step and aqueous washings provide that no HCl remains in the cake. Avoiding residual HCl in the product may be important because it could react with ethanolamine during step 2. Washing the cake with methanol allows for the removal of water. […] This way no Tizoxanide is lost during the washing of the cake; nevertheless, the remaining NTZA is not removed either.
RM5071 is not soluble in ethyl acetate, but it tends to form a sticky material. This was also observed during a test reaction in pure ethyl acetate. In addition, it was observed that RM5071 is almost soluble in methanol at a concentration of 5 mg/mL.

Series [2] can be described thus: Bioavailability pharmacokinetic study, single oral gavage dose in rats. Particulars: for maximum concentrations (Cmax) of T (medians): both, Sprague-Dawley. It counts as in vivo, Sprague-Dawley rats. Here is the method: A study was conducted to evaluate the bioavailability of tizoxanide (T) and tizoxanide glucuronide (TG) in plasma following oral administration of a single dose of 90 mg/kg RM-5071, RM-5072 and nitazoxanide by oral gavage to four male and four female Sprague-Dawley rats. Plasma samples were collected at 0.083, 0.167, 0.25, 0.5 1, 2, 6, 12 and 24-hours post-dose. Concentrations of T and TG were determined using mass spectrometry. […] These compounds are rapidly absorbed achieving Cmax within 5 minutes after an oral dose.
Animals and treatment. Three groups of four male and four female Sprague-Dawley rats were administered RM-5071, RM-5072 or NTZ as a single oral gavage dose as detailed in the table below:
Nine serial blood samples were obtained from each animal at 0.083, 0.167, 0.25, 0.5 1, 2, 6, 12 and 24-hours post-dose. Derived plasma samples were stored in sodium heparinized tubes at −70° C. or lower until they were shipped on dry ice via overnight courier for analysis of T and TG concentrations by mass spectrometry.
Because some animals glucurono-conjugate T faster than others, the extent, rate and variability of absorption of these three compounds using the sum of free and glucurono-conjugated T concentrations at each timepoint were evaluated. To arrive at the concentrations of glucurono-conjugated T, TG concentrations were multiplied by 61% (molecular weight of T=270 divided by molecular weight of TG=441).

Series [3] in a line: physchem. It counts as physicochemical. The conditions noted are these: for solubility: thermodynamic from solid. Here is the method:
The apparent solubility of RM-5071 was tested using several solvents, specifically: DMF, DMSO, acetonitrile (ACN), water, ACN/water mixture, methanol, isopropanol, and ethanol. United States Pharmacopeia (USP) classify the solubility regardless of the solvent used, just following defined criteria summarized in Table 10. The solute was initially dissolved in each of the solvents or solvent system at a lmg/mL concentration. If solute remained undissolved, a fresh solution of lower concentration was subsequently prepared until the solid was observed completely dissolved. This concentration limit was estimated as the apparent solubility.
The solutions of RM-5071 were prepared, dissolving 10 mg in increasing solvent volumes ranging from 10 mL, 100 mL, to 1000 mL in each of the solvents. According to the visual inspection and observations the apparent solubility of RM-5071 was classified according the 10, as defined by the USP.
The solubility studies of RM-5071 were performed in several solvents as specified on Table 11 at room temperature. For the purpose of this chemical characterization report, the terms specified on Table 10 were used to describe the solubility of RM 5071 in different solvents on Table 12

A short description of series [4]: Thermogravimetric analysis (TGA). It counts as physicochemical. From the text:
Thermogravimetric analysis (TGA) is an analytical technique used to determine the thermal stability of a material and its fraction of volatile components by monitoring the weight change that occurs as a substance is heated. As many weight loss curves look similar, the curves may require transformation before results may be interpreted. A derivative weight loss curve can be used to tell the point at which weight loss is most apparent. The analysis is normally carried out in air or in an inert atmosphere such as nitrogen.
For the TGA analysis, amounts between 2.0 to 2.6 mg of both RM-5071 and desacetyl-NTZA samples were placed individually in platinum pans. The temperature method was: step 1: equilibrate at 25° C., step 2: heat from 25° C. to 700° C. at 10.00° C./min, step 3: hold for 5 min at 700° C. The analyses were carried out under nitrogen.

The nature of series [5]: Differential scanning calorimetry (DSC). It counts as physicochemical. Particulars: 10 °C/min under nitrogen; irreversible for RM-5071. The procedure:
Differential scanning calorimetry (DSC) is a thermo-analytical technique in which the difference in the amount of heat required to increase the temperature of a sample versus a reference are measured as a function of temperature. The reference sample should have a well-defined heat capacity over the range of temperatures to be scanned. One application of DSC is studying phase transitions, such as melting, glass transitions, and/or exothermic decompositions. Such measurements provide qualitative and quantitative information about physical and chemical changes of a molecule.
The calorimetric analysis was performed by the MCC. For the DSC analysis, amounts between 2.34 to 2.46 mg of the samples RM-5071 and desacetyl-NTZA were placed individually in aluminum hermetic pans and covered with an aluminum lid. The temperature method was: step 1: hold for 10 min at 25° C., and step 2: heat from 25° C. to 400 at 10.00 ° C./min. An additional DSC experiment was performed to determine further crystallinity behavior by performing a heat-cool-heat cycling experiment to RM-5071. Approximately 1.69 mg of the RM-5071sample was placed in an aluminum hermetic pan and covered with an aluminum lid. […]

Series [6] is described as follows: physchem. It counts as physicochemical. Here is the method:
The acid titration was performed by adding 20 mL of a 1 mg/mL RM-5071 solution poured onto a beaker (titrate), the pH of the solution was measured while using a solution of 0.01N HCl as the titrant. The alkaline titration was performed by adding 20 mL of a 1 mg/mL RM-5071 solution were poured onto a beaker, the pH of the solution was measured while adding a solution 0.02 N NaOH as the titrant. The solutions had agitation with a magnetic stirrer during titration and it was stopped during pH measurements.
The inflection point was calculated using the second derivative of the experimental curve, the volume for the equivalence point is 5.83 mL of 0.01 N HCl, at a pH =5.99. […] The pKa of a phenolic proton is 9.9 as per Vollhardt, K. P. C.; Schore, N. E., Organic Chemistry; Palgrave Version: Structure and Function. Macmillan International Higher Education: 2014.
This is another data set of the same source.

Series [7] is described as follows: XRD temperature test (oven heating, then XRD). It counts as physicochemical. The procedure: A temperature test was performed in order to determine if any physical and crystallinity changes occurred to the sample RM-5071 upon heating.In order to assess if any change occurred two set of experiments were performed as follows: Experiment A- Two petri dishes were identified as “Fast” and “Slow”. To each petri dish, approximately 2 spatulas of sample RM-5071 were added. Then, the oven was turned on and set to a temperature of-160-165° C. After reaching the temperature, the petri dishes were placed in the oven for 15 minutes. Once the time was completed, the oven was turned off and the “Fast” sample was removed and left to reach room temperature (RT) in the hood. The “Slow” sample was left in the oven to reach RT in a slower manner. The “Slow” sample was removed from the oven, once it reached RT. The samples were analyzed by XRD. Experiment B- The procedure described above was followed at a temperature range of ˜110-120° C. After reaching the temperature, the petri dishes were placed in the oven during 10 minutes. The removal of samples from the oven was followed as previosly described. Afterwards, the samples were analyzed by XRD.

For series [8] the following is noted: in vivo; cited from earlier work.
The mark [9] stands for this setting: single 90 mg/kg oral gavage, 4 male and 4 female rats per group.
The mark [10] stands for this setting: single 90 mg/kg oral gavage, rats.

As for `O=C(Nc1ncc([N+](=O)[O-])s1)c1ccccc1O` [Desacetyl-NTZA, 2-Hydroxybenzoyl-N-[(5-nitro)thiazol-2-yl]amide], in “physchem [1]”, the solubility in methanol entry was “fairly insoluble” and the solubility in water entry is recorded as “fairly insoluble”.
Take `O=C(Nc1ncc([N+](=O)[O-])s1)c1ccccc1O` [RM-5072, 2-Hydroxybenzoyl-N-[(5-Nitro)Thiazol-2-yl]Amide, Morpholine Salt]: the “maximum concentrations (Cmax) of T (medians)” value (from here on “maximum concentrations (Cmax)”) in series [2] (rat, in vivo, po, 90 mg/kg) is 3100 ng/mL. Further, in series [2] (setting [9]), the adverse clinical signs entry is listed as “No adverse clinical signs were observed”. For the same molecule, the “speed of availability of T in plasma compared to NTZ” value in series [2] (setting [10]) is on record as “dramatically improve”.
For `O=C(Nc1ncc([N+](=O)[O-])s1)c1ccccc1O` [RM-5071, 2-Hydroxybenzoyl-N-[(5-Nitro)Thiazol-2-yl]Amide, Ethanolamine Salt], the Apparent solubility result in the series “physchem [3]” is given as “very soluble”. The solubility in “physchem [3]” (aqueous with cosolvent or surfactant or cyclodextrin, Apparent Solubility of RM-5071) was more than 1000 µg/mL. For the same molecule, the solubility in the series “physchem [3]” (aqueous with cosolvent or surfactant or cyclodextrin, Apparent Solubility of RM-5071 (concentration limit)) was more than 1000 µg/mL. The solubility in the series “physchem [3]” (organic solvent or mixture, Apparent Solubility of RM-5071 (concentration limit)) was determined as 33 µg/mL. Besides, in the series “physchem [3]” (water, Apparent Solubility of RM-5071 (concentration limit)), the solubility was less than 5 µg/mL. Besides, in series [4] (10 °C/min under nitrogen), the “First step Temperature (° C.)” value is 85-160 °C, the “Second step Temperature(° C.)” value is 160-254 °C, the “Second step Weight loss (%)” value is on record as 30.93% and the “Third step Temperature(° C.)” value was 254-700 °C. For the same molecule, the “Third step Weight loss (%)” value in series [4] (10 °C/min under nitrogen) was 26.62%. Moreover, the total weight loss in series [4] (25 to 700 °C under nitrogen) is reported as 77%. Besides, in series [5], the “DSC peak transition temperature (exothermic; solid stable up to)” value is 163 °C. Moreover, the “solubility in ethyl acetate” value in “physchem [1]” is reported as “not soluble”. For the same molecule, the solubility in “physchem [1]” (organic solvent or mixture) was approximately 5000 µg/mL. In “physchem [6]”, this molecule showed a pKa of 8.8. This molecule yielded a pH of solution in “physchem [6]” (1 mg/mL RM-5071 solution, initial) of 9.44. Further, the “pH at which full dissolution of the solid is achieved” value in “physchem [6]” (1 mg/mL, titration with NaOH) is given as 10.63. Moreover, in series [7] (Experiment A: 160-165° C., 15 minutes), the “physical and crystallinity changes upon heating” value is given as “changed from bright yellow to a black powder with beige portions”. Besides, the “physical and crystallinity changes upon heating” value in series [7] (Experiment B: 110-120° C., 10 minutes) is on record as “does not change significantly”. For the same molecule, the “maximum concentrations (Cmax)” value in series [2] (rat, in vivo, po, 90 mg/kg) stood at 4700 ng/mL. In addition, in series [2] (rat, in vivo), the “bioavailability in terms of the maximum concentration compared to NTZA” value is given as “more bioavailable”, the “mean AUC0-12h relative to NTZ” value is listed as “roughly the same” and the “mean AUC0-12h relative to RM-5072” value is recorded as “almost double”. Also, the adverse clinical signs entry in series [2] (setting [9]) is “No adverse clinical signs were observed”. Besides, in series [2] (setting [10]), the “plasma concentrations of T and TG (free and glucurono-conjugated T) compared to RM-5072 or NTZ” value was “higher”; the “speed of availability of T in plasma compared to NTZ” value is recorded as “dramatically improve”; the “variability of absorption compared to RM-5072 or NTZ” value is listed as “less variability”.
In the case of `CC(=O)Oc1ccccc1C(=O)Nc1ncc([N+](=O)[O-])s1` [NTZ, 2-(acetolyloxy)-N-(5-nitro-2-thiazolyl) benzamide, reference compound], the plasma half-life in series [8] is reported as 1.3 h. In addition, in “physchem [1]”, the solubility in methanol entry is on record as “fairly insoluble” and the solubility in water entry is “fairly insoluble”. Further, in series [2] (rat, in vivo, po, 90 mg/kg), the “maximum concentrations (Cmax)” value came to 1700 ng/mL, the adverse clinical signs result was “No adverse clinical signs were observed” and the “time at which Cmax of T was achieved” value stood at 2 h.

The solubility is the dissolved amount per volume that the medium holds. One may read the pKa as the pH at which an ionisable group is half protonated.
